Legend:
[1] = test system: T. terrestris GH61E polypeptide; test: Microcrystalline cellulose conversion assay I (Examples 8, 9) with T. terrestris GH61E polypeptide; type: biochemical, Thielavia terrestris; conditions: dioxy compound 0.3% w/w + T. terrestris GH61E polypeptide (10 mg/g) + endoglucanase II + beta-glucosidase (5 mg/g each), 96 hours
Protocol: A 5% microcrystalline cellulose slurry was prepared by addition of 2.5 g of AVICEL®PH101 (Sigma-Aldrich, St. Louis, Mo., USA) to a graduated 50 ml screw-cap conical tube followed by 15 ml of 1 M sodium acetate pH 5 and 1 ml of 100 mM MnSO4 and approximately 20 ml of deionizer water. Each conical tube was then mixed thoroughly by shaking/vortexing, and adjusted to 50 ml total with deionized water and mixed again. Contents of the tube were then quickly transferred to a 100 ml beaker and stirred rapidly with a magnetic stirrer. Five hundred μl aliquots of the 5% AVICEL® slurry were pipetted into wells of a 2.0 ml 96-deepwell plate (Axygen, Union City, Calif., USA) using a 1000 μl micropipette with a wide aperture tip (end of tip cut off about 2 mm from the base). Three hundred μl of either deionized water or a 1% dioxy compound solution (dissolved in deionized water) was added to each well.
The dioxy compounds assayed include caffeic acid (Sigma-Aldrich, St. Louis, Mo., USA), dichlorophenolindophenol (DCPIP; Sigma-Aldrich, St. Louis, Mo., USA), ethyl gallate (Sigma-Aldrich, St. Louis, Mo., USA), gallic acid (Sigma-Aldrich, St. Louis, Mo., USA), 3,4-dihydroxybenzoic acid (Sigma-Aldrich, St. Louis, Mo., USA), pyrocatechol (Sigma-Aldrich, St. Louis, Mo., USA), pyrogallol (Sigma-Aldrich, St. Louis, Mo., USA), sinapinic acid (3,5 dimethoxy-4-hydroxy cinnamic acid; Apin Chemicals LTD, Abingdon, UK), and tannic acid (Sigma-Aldrich, St. Louis, Mo., USA).
Enzyme mixtures were prepared and then added simultaneously to all wells in a volume of 200 μl, for a total of 1 ml in each reaction. […] All experiments reported were performed in triplicate.
After approximately 4 days, the deep-well plate was removed from the incubator and chilled overnight to 4° C. The plate was then mixed well by inversion and briefly centrifuged at 52×g in a SORVALL® RT7 centrifuge (Thermo Fisher Scientific, Waltham, Mass., USA) for 10 seconds. Samples were then mixed by pipetting, and 200 μl from each well were transferred to a MULTISCREEN® HV centrifuge filter plate assembly (Millipore, Bedford, Mass., USA). The centrifuge filter plate assembly was centrifuged at 2000 rpm in a SORVALL® RT7 centrifuge for 20 minutes. […] Sugars were detected using a refractive index detector (Agilent Technologies, Inc., Santa Clara, Calif., USA) with quantification by integration compared to purified sugar standards.
In this assay only glucose was measured since beta-glucosidase was at high levels in all samples but the controls.
A limit digest was performed to determine the total concentration accessible glucose equivalents using 100 mg of T. reesei cellulase (CELLIC™ CTec, Novozymes A/S, Bagsvaerd, Denmark) per gram cellulose, Triplicate data points were averaged and standard deviation was calculated.

[2] = biological target: Aspergillus fumigatus GH61B polypeptide (Aspergillus fumigatus, UniProt Q4WP32); test: Variable pH PASC conversion assay (Examples 29, 30) with Aspergillus fumigatus GH61B polypeptide; type: biochemical; conditions: gallic acid 0.2% w/w + Aspergillus fumigatus GH61B polypeptide (10 mg/g) + beta-glucosidase (10 mg/g), 72 hours, 50° C.
[3] = biological target: T. aurantiacus GH61A polypeptide (Thermoascus aurantiacus, UniProt G3XAP7, N13Y); test: Phosphoric acid swollen cellulose (PASC) hydrolysis assay (Examples 18, 19); type: biochemical; conditions: T. aurantiacus GH61A polypeptide (20 mg/g) + A. oryzae CEL3A beta-glucosidase (20 mg/g), no gallic acid; 72 hours, 50° C.
Protocol: A 1% phosphoric acid swollen cellulose (PASC) slurry was prepared from AVICEL® PH101 using the protocol described by Zhang et al., 2006, Biomacromolecules 7: 644-648.
The 1.0% PASC slurry prepared as described in Example 17 was thoroughly resuspended by shaking, and quickly transferred to a 100 ml beaker and stirred rapidly with a magnetic stirrer. Five hundred μl aliquots of the 1.0% PASC slurry were pipetted into wells of a 2.0 ml 96-deepwell plate (Axygen, Union City, Calif., USA) using a 1000 μl micropipette with a wide aperture tip (end of tip cut off about 2 mm from the base). One hundred μl of 10 mM MnSO4-500 mM sodium acetate pH 5 were then added to each well. […]
Primary analysis of the hydrolysis reactions was performed using an AGILENT® 1100 HPLC with CHEMSTATION® software equipped with an AMINEX™ HPX-87H column. […] Sugars were detected using a refractive index detector with quantification by integration compared to purified sugar standards.
All HPLC data processing was performed using MICROSOFT EXCEL™ software. […] In this assay only glucose was measured since beta-glucosidase was at high levels in all samples but the controls. Percent conversion was calculated using Equation 1. Triplicate data points were averaged and standard deviation was calculated. […]
Data were collected and analyzed, as described in Example 18, after 72 hours of incubation at 50° C.

Sequence of Aspergillus fumigatus GH61B polypeptide (Q4WP32 22-250): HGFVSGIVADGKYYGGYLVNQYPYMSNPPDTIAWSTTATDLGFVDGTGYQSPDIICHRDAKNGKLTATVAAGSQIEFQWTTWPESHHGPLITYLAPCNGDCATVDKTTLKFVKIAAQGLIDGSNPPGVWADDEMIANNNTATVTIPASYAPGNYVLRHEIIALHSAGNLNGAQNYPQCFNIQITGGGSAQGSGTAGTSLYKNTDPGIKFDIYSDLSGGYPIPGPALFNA

Molecule | conversion of microcrystalline cellulose ([1]; 50° C.) [%] | conversion of microcrystalline cellulose ([1]; 60° C.) [%] | conversion of phosphoric acid swollen cellulose ([2]; pH 4) [%] | conversion of phosphoric acid swollen cellulose ([2]; pH 5) [%] | conversion of phosphoric acid swollen cellulose ([2]; pH 6) [%] | conversion of phosphoric acid swollen cellulose ([2]; pH 7.5) [%] | conversion of PASC [3] [%]
O=C(O)c1cc(O)c(O)c(O)c1 [gallic acid] | 9.3±0.1 | 7.9±0.1 | 21.7±3.0 | 23.8±1.4 | 17.3±0.3 | 5.6±0.7 | 
T. aurantiacus GH61A polypeptide: GH61A polypeptide having cellulolytic enhancing activity (SEQ ID NO: 14), recombinantly produced in Aspergillus oryzae JaL250 (protein, listed as Thermoascus aurantiacus) MSFSKIIATAGVLASASLVAGHGFVQNIVIDGKYYGGYLVNQYPYMSNPPEVIAWSTTATDLGFVDGTGYQTPDIICHRGAKPGALTAPVSPGGTVELQWTPWPDSHHGPVINYLAPCNGDCSTVDKTQLEFFKIAESGLINDDNPPGIWASDNLIAANNSWTVTIPTTIAPGNYVLRHEIIALHSAQNQDGAQNYPQCINLQVTGGGSDNPAGTLGTALYHDTDPGILINIYQKLSSYIIPGPPLYTG |  |  |  |  |  |  | 2.6±0.1

— patent publication US9394555B2, “Compositions comprising a polypeptide having cellulolytic enhancing activity and a dioxy compound and uses thereof” (priority 2010, dated 2016)
